# In patent US20260306495A1, “COMBINATION OF CAPIVASERTIB, A CDK4/6 INHIBITOR AND FULVESTRANT FOR USE IN THE TREATMENT OF BREAST CANCER” (AstraZeneca AB, priority 2023, published 2026):
# How the values were obtained:
# [1] = Pharmacokinetics, palbociclib triplet, CAPItello-292 Phase Ib; format: in vivo, human
# Protocol: In the open-label Phase Ib part of the study: • The initial palbociclib cohort will receive capivasertib (320 mg oral twice daily, 4 days on and 3 days off for 4 weeks), palbociclib (125 mg, oral once daily, dosed continually for 21 days out of 28 days), and fulvestrant (500 mg intramuscular injection [IM] monthly [Day 1 of a 28-day cycle] with a loading dose of 500 mg 2 weeks after the first dose). • The initial ribociclib cohort will explore the combination of capivasertib (400 mg oral twice daily, 4 days on and 3 days off for 4 weeks), ribociclib (400 mg, oral once daily, dosed continually for 21 days out of 28 days), and fulvestrant (500 mg IM monthly [Day 1 of a 28-day cycle] with a loading dose of 500 mg 2 weeks after the first dose). • The initial abemaciclib cohort will explore the combination of capivasertib (400 mg oral twice daily, 4 days on and 3 days off for 4 weeks), abemaciclib (100 mg, oral twice daily, 28 days out of 28 days), and fulvestrant (500 mg IM monthly [Day 1 of a 28-day cycle] with a loading dose of 500 mg 2 weeks after the first dose).
# At the time of data cut-off of 31 Oct. 2022, 39 patients had been treated with capivasertib in combination with palbociclib and fulvestrant across three dose levels. Dose 1 opened first; dose levels 2 and 3 opened simultaneously: • Dose level 1: capivasertib 320 mg+palbociclib 125 mg+fulvestrant 500 mg • Dose level 2: capivasertib 400 mg+palbociclib 100 mg+fulvestrant 500 mg • Dose level 3: capivasertib 400 mg+palbociclib 125 mg+fulvestrant 500 mg
# [2] = Pharmacokinetics, ribociclib triplet (preliminary modelling from clinical data); format: in vivo, human; conditions: for Increase of capivasertib AUC vs historical monotherapy data: preliminary modelling from clinical data
# Protocol: In the open-label Phase Ib part of the study: • The initial palbociclib cohort will receive capivasertib (320 mg oral twice daily, 4 days on and 3 days off for 4 weeks), palbociclib (125 mg, oral once daily, dosed continually for 21 days out of 28 days), and fulvestrant (500 mg intramuscular injection [IM] monthly [Day 1 of a 28-day cycle] with a loading dose of 500 mg 2 weeks after the first dose). • The initial ribociclib cohort will explore the combination of capivasertib (400 mg oral twice daily, 4 days on and 3 days off for 4 weeks), ribociclib (400 mg, oral once daily, dosed continually for 21 days out of 28 days), and fulvestrant (500 mg IM monthly [Day 1 of a 28-day cycle] with a loading dose of 500 mg 2 weeks after the first dose). • The initial abemaciclib cohort will explore the combination of capivasertib (400 mg oral twice daily, 4 days on and 3 days off for 4 weeks), abemaciclib (100 mg, oral twice daily, 28 days out of 28 days), and fulvestrant (500 mg IM monthly [Day 1 of a 28-day cycle] with a loading dose of 500 mg 2 weeks after the first dose). […]
# [3] = Yu Y, et al. J Clin Pharmacol 2017; 57 (2): 173-184; cited from earlier work
# Japanese participants = experiment: DLTs, Japanese participants; format: in vivo, human (Japanese); conditions: capivasertib + palbociclib 125 mg + fulvestrant
# From the text: (§1) For the Phase Ib part of the study, participants must be eligible for fulvestrant therapy and at least one of the following: palbociclib, ribociclib, or abemaciclib, as per local investigator assessment. Participants who received treatment with at least one prior endocrine therapy (alone or in combination) for ABC and a maximum of 2 lines prior chemotherapy (for global participants) or up to 1 prior line of chemotherapy (for Japanese participants) are eligible. […]
# [4] = Pharmacokinetics, Japanese participants; format: in vivo, human (Japanese); conditions: 100 mg oral (Japanese) vs 125 mg oral (rest of the world), with capivasertib 400 mg; preliminary limited data
# From the text: as §1
# [5] = test system: participants with locally advanced (inoperable) or metastatic HR+/HER2− breast cancer; experiment: Dose-limiting toxicities (DLTs), CAPItello-292 Phase Ib, palbociclib triplet; format: in vivo, human; conditions: triplet with capivasertib and fulvestrant
# From the text: The Phase Ib part of the study consists of an open-label, 3-arm dose finding phase to determine the safe and well tolerated doses and schedules (RP3D) of capivasertib plus CDK4/6i (palbociclib, ribociclib, or abemaciclib) and fulvestrant (the latter administered at fixed dose and schedule, as per label) as triplet combinations in participants with ABC. The maximum tolerated doses (MTD) may also be determined. […]
smiles,measurement,setting,value
"NC1(C(=O)N[C@@H](CCO)c2ccc(Cl)cc2)CCN(c2ncnc3[nH]ccc23)CC1 [capivasertib, (S)-4-amino-N-(1-(4-chlorophenyl)-3-hydroxypropyl)-1-(7H-pyrrolo[2,3-d]pyrimidin-4-yl) piperidine-4-carboxamide]",PK of capivasertib versus previous monotherapy data,[1]; in combination with palbociclib and fulvestrant,consistent with previous monotherapy data
same,Increase of capivasertib AUC vs historical monotherapy data,"[2]; with ribociclib 400 mg, 95% CI 1% to 43%",19%
same,Increase of capivasertib AUC vs historical monotherapy data,"[2]; with ribociclib 600 mg, 95% CI 0% to 34%",16%
"CC(=O)c1c(C)c2cnc(Nc3ccc(N4CCNCC4)cn3)nc2n(C2CCCC2)c1=O [palbociclib, 6-acetyl-8-cyclopentyl-5-methyl-2-{[5-(1-piperazinyl)-2-pyridinyl]amino}pyrido[2,3-d]pyrimidin-7 (8H)-one]",Palbociclib expected accumulation ratio,[3],2.4
same,Incidence of DLTs (febrile neutropenia),Japanese participants,led to palbociclib dose de-escalation from 125 mg to 100 mg
same,"Mean palbociclib plasma exposure, Japanese participants vs rest of the world",[4],roughly similar
same,"Palbociclib AUC accumulation, Day 11/Day 1 ratio","[1]; Cycle 1 Day 11 / Cycle 0 Day 1, with capivasertib and fulvestrant, 90% CI",2.89 (90% CI 2.64-3.15)
same,"Palbociclib AUC accumulation, Day 14/Day 1 ratio","[1]; Cycle 1 Day 14 / Cycle 0 Day 1, with capivasertib and fulvestrant, 90% CI",2.77 (90% CI 2.54-3.03)
same,Increase of palbociclib area under curve (AUC) by capivasertib,"[1]; based on observed and expected accumulation from Cycle 0, Day 1 to Cycle 1, Day 11 and Day 14",approximately 20%
same,Cause of the most frequent DLT (neutropenia/neutrophil count decreased),[5],driven by palbociclib
"CN(C)C(=O)c1cc2cnc(Nc3ccc(N4CCNCC4)cn3)nc2n1C1CCCC1 [ribociclib, 7-cyclopentyl-N,N-dimethyl-2-{[5-(1-piperazinyl)-2-pyridinyl]amino}-7H-pyrrolo[2,3-d]pyrimidine-6-carboxamide]",Ribociclib exposure vs published population PK model,"[2]; with capivasertib, consistent with DDI predictions based on capivasertib as a weak CYP3A inhibitor",generally within model predictions
